The text below walks through data of US20110105509A1 (Wyeth, LLC, priority 2009, published 2011).

The structures appear in SMILES notation.

For the assay, the target named is T1, CRTH2 (Homo sapiens, UniProt Q9Y5Y4).
T1 construct: expressed in transfected cells; host or cells: CHO cells
T1 sequence (Q9Y5Y4 1-395): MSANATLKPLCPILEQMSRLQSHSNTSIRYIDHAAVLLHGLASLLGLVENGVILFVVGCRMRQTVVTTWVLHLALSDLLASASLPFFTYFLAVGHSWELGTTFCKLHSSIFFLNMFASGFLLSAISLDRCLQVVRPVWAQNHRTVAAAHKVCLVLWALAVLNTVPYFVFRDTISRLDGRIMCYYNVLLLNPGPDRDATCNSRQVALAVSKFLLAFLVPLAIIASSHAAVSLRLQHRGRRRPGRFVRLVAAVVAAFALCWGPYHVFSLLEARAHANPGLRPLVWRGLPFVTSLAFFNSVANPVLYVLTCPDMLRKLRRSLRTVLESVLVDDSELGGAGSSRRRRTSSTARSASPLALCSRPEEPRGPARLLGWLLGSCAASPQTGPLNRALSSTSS
The experiment in a line: FRET based competitive immunoassay (cAMP) in CRTH2 expressing CHO cells. The class given is cell-based. The note with it: CRTH2 expressing CHO cells incubated with forskolin and PGD2; Eu3+ cryptate-labeled anti-cAMP and d2-labeled cAMP. How it is done:
FRET Assay: To evaluate potency compounds were tested in a FRET based competitive immunoassay in which CRTH2 expressing CHO cells were incubated in the presence of forskolin and PGD2 along with Eu3+ cryptate-labeled anti-cAMP and d2-labeled cAMP.
For the compound `Cc1c(-c2nn(Cc3nc4cc(C(F)(F)F)ccc4s3)c(=O)c3ccccc23)c2cc(F)ccc2n1CC(=O)O` [Example 115, 2-(5-fluoro-2-methyl-3-(4-oxo-3-((5-(trifluoromethyl)benzo[d]thiazol-2-yl)-methyl)-3,4-dihydrophthalazin-1-yl)-1H-indol-1-yl)acetic acid], the IC50 – broadly, the concentration that gives 50% inhibition – came out at 64 nM.
In the case of `Cc1c(-c2nn(Cc3c(F)cccc3F)c(=O)c3ccccc23)c2cc(F)ccc2n1CC(=O)O` [Example 116, 2-(3-(3-(2,6-difluorobenzyl)-4-oxo-3,4-dihydrophthalazin-1-yl)-5-fluoro-2-methyl-1H-indol-1-yl)acetic acid], the IC50 came to 7 nM. This IC50 is about 9.1-fold lower than that of the compound before.
`Cc1c(-c2nn(Cc3ccc(OC(F)(F)F)cc3)c(=O)c3ccccc23)c2cc(F)ccc2n1CC(=O)O` [Example 117, 2-(5-fluoro-2-methyl-3-(4-oxo-3-(4-(trifluoromethoxy)benzyl)-3,4-dihydro-phthalazin-1-yl)-1H-indol-1-yl)acetic acid] displayed a half-maximal inhibitory concentration (IC50) of 22 nM. Against the preceding compound, the IC50 is about 3.1-fold higher.
`Cc1c(-c2nn(Cc3ccc4ccccc4n3)c(=O)c3ccccc23)c2cc(F)ccc2n1CC(=O)O` [Example 118, 2-(5-fluoro-2-methyl-3-(4-oxo-3-(quinolin-2-ylmethyl)-3,4-dihydro-phthalazin-1-yl)-1H-indol-1-yl)acetic acid] came in with an IC50 of 9 nM.
Compound `Cc1cc(Cn2nc(-c3c(C)n(CC(=O)O)c4ccc(F)cc34)c3ccccc3c2=O)c2ccccc2n1` [Example 119, 2-(5-fluoro-2-methyl-3-(3-((2-methylquinolin-4-yl)methyl)-4-oxo-3,4-dihydro-phthalazin-1-yl)-1H-indol-1-yl)acetic acid] registered an IC50 of 17 nM.
With `Cc1c(-c2nn(C)c(=O)c3ccccc23)c2cc(F)ccc2n1CC(=O)O` [Example 120, 2-(5-fluoro-2-methyl-3-(3-methyl-4-oxo-3,4-dihydrophthalazin-1-yl)-1H-indol-1-yl)acetic acid], the IC50 stood at 201 nM.
Turning to `CCn1nc(-c2c(C)n(CC(=O)O)c3ccc(F)cc23)c2ccccc2c1=O` [Example 121, 2-(3-(3-ethyl-4-oxo-3,4-dihydrophthalazin-1-yl)-5-fluoro-2-methyl-1H-indol-1-yl)acetic acid], the IC50 turned out to be 55 nM.
As to `Cc1c(-c2nn(CC3CC3)c(=O)c3ccccc23)c2cc(F)ccc2n1CC(=O)O` [Example 122, 2-(3-(3-(cyclopropylmethyl)-4-oxo-3,4-dihydrophthalazin-1-yl)-5-fluoro-2-methyl-1H-indol-1-yl)acetic acid], the half-inhibitory concentration (IC50) turned out to be 27 nM.
In turn, `Cc1c(-c2nn(C3CC3)c(=O)c3ccccc23)c2cc(F)ccc2n1CC(=O)O` [Example 123, 2-(3-(3-cyclopropyl-4-oxo-3,4-dihydrophthalazin-1-yl)-5-fluoro-2-methyl-1H-indol-1-yl)acetic acid] displayed a 50% inhibitory concentration (IC50) of 22 nM.
As for `Cc1c(-c2nn(CC(F)(F)F)c(=O)c3ccccc23)c2cc(F)ccc2n1CC(=O)O` [Example 124, 2-(5-fluoro-2-methyl-3-(4-oxo-3-(2,2,2-trifluoroethyl)-3,4-dihydro-phthalazin-1-yl)-1H-indol-1-yl)acetic acid], the figure is 8 nM; as for `Cc1c(-c2nn(CCCC(F)(F)F)c(=O)c3ccccc23)c2cc(F)ccc2n1CC(=O)O` [Example 125, 2-(5-fluoro-2-methyl-3-(4-oxo-3-(4,4,4-trifluorobutyl)-3,4-dihydro-phthalazin-1-yl)-1H-indol-1-yl)acetic acid], 4 nM.
As for `Cc1c(-c2nn(CC(C)(C)C)c(=O)c3ccccc23)c2cc(F)ccc2n1CC(=O)O` [Example 126, 2-(5-fluoro-2-methyl-3-(3-neopentyl-4-oxo-3,4-dihydrophthalazin-1-yl)-1H-indol-1-yl)acetic acid], the figure is 8 nM.
As for `Cc1c(-c2nn(CCC(F)(F)F)c(=O)c3ccccc23)c2cc(F)ccc2n1CC(=O)O` [Example 127, 2-(5-fluoro-2-methyl-3-(4-oxo-3-(3,3,3-trifluoropropyl)-3,4-dihydro-phthalazin-1-yl)-1H-indol-1-yl)acetic acid], the figure is 4 nM; as for `CCC(O)(CC)Cn1nc(-c2c(C)n(CC(=O)O)c3ccc(F)cc23)c2ccccc2c1=O` [Example 128, 2-(3-(3-(2-ethyl-2-hydroxybutyl)-4-oxo-3,4-dihydrophthalazin-1-yl)-5-fluoro-2-methyl-1H-indol-1-yl)acetic acid], 6 nM.
Consider `Cc1c(-c2nn(CC(C)(C)O)c(=O)c3ccccc23)c2cc(F)ccc2n1CC(=O)O` [Example 129, 2-(5-fluoro-3-(3-(2-hydroxy-2-methylpropyl)-4-oxo-3,4-dihydrophthalazin-1-yl)-2-methyl-1H-indol-1-yl)acetic acid], for which the IC50 stood at 136 nM. This IC50 lies about 23-fold higher than the previous one.
For the compound `CC(C)=CCn1nc(-c2c(C)n(CC(=O)O)c3ccc(F)cc23)c2ccccc2c1=O` [Example 130, 2-(5-fluoro-2-methyl-3-(3-(3-methylbut-2-enyl)-4-oxo-3,4-dihydro-phthalazin-1-yl)-1H-indol-1-yl)acetic acid], the IC50 was > 1000 nM.
For `Cc1c(-c2nn(CC(O)(C(F)(F)F)C(F)(F)F)c(=O)c3ccccc23)c2cc(F)ccc2n1CC(=O)O` [Example 131, 2-(5-fluoro-2-methyl-3-(4-oxo-3-(3,3,3-trifluoro-2-hydroxy-2-(trifluoro-methyl)propyl)-3,4-dihydrophthalazin-1-yl)-1H-indol-1-yl)acetic acid], the IC50 was 54 nM.
`Cc1c(-c2nn(CCC(C)(C)O)c(=O)c3ccccc23)c2cc(F)ccc2n1CC(=O)O` [Example 132, 2-(5-fluoro-3-(3-(3-hydroxy-3-methylbutyl)-4-oxo-3,4-dihydrophthalazin-1-yl)-2-methyl-1H-indol-1-yl)acetic acid] gave an IC50 of 75 nM. This IC50 and that of the compound before are within 1.5-fold of each other.
The compound `CCC(=O)Cn1nc(-c2c(C)n(CC(=O)O)c3ccc(F)cc23)c2ccccc2c1=O` [Example 133, 2-(5-fluoro-2-methyl-3-(4-oxo-3-(2-oxobutyl)-3,4-dihydrophthalazin-1-yl)-1H-indol-1-yl)acetic acid] gave an IC50 of 8 nM.
In the case of `Cc1c(-c2nn(Cc3ccncc3)c(=O)c3ccccc23)c2cc(F)ccc2n1CC(=O)O` [Example 134, 2-(5-fluoro-2-methyl-3-(4-oxo-3-(pyridin-4-ylmethyl)-3,4-dihydrophthalazin-1-yl)-1H-indol-1-yl)acetic acid] it was 3 nM; in that of `Cc1c(-c2nn(Cc3cccnc3)c(=O)c3ccccc23)c2cc(F)ccc2n1CC(=O)O` [Example 135, 2-(5-fluoro-2-methyl-3-(4-oxo-3-(pyridin-3-ylmethyl)-3,4-dihydrophthalazin-1-yl)-1H-indol-1-yl)acetic acid], 5 nM.
As for `Cc1c(-c2nn(Cc3ccccn3)c(=O)c3ccccc23)c2cc(F)ccc2n1CC(=O)O` [Example 136, 2-(5-fluoro-2-methyl-3-(4-oxo-3-(pyridin-2-ylmethyl)-3,4-dihydrophthalazin-1-yl)-1H-indol-1-yl)acetic acid], the figure is 4 nM; as for `Cc1c(-c2nn(CCC(C(F)(F)F)C(F)(F)F)c(=O)c3ccccc23)c2cc(F)ccc2n1CC(=O)O` [Example 137, 2-(5-fluoro-2-methyl-3-(4-oxo-3-(4,4,4-trifluoro-3-(trifluoromethyl)butyl)-3,4-dihydrophthalazin-1-yl)-1H-indol-1-yl)acetic acid], 21 nM.
